According to patent publication US20230017045A1, “PYRIDINE AND PYRIMIDINE CARBOXYLATE HERBICIDES AND METHODS OF USE THEREOF” (Dow AgroSciences LLC, priority 2017, published 2023):

Test system: test plant species
Test: Post-emergent herbicidal activity test (greenhouse, foliar spray, visual growth reduction)
Assay type: in vivo
Details: post-emergence, 336 h, ECHCG: barnyardgrass (Echinochloa crus-galli), 140 g ai/ha, 14 days after application, read-out: Visual Growth Reduction (%) 14 Days After Application, ECHCG
Procedure, shortened: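 Scoring used a 0 to 100 percent visual scale of growth reduction against solvent-treated controls, read 14 d after spraying. Applications went onto plants at first or second true leaf stage, 187 L/ha, with crop oil concentrate and X-77 surfactant in the carrier. Post-treatment watering was by subirrigation to avoid wash-off.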

Structure (SMILES) | pest or weed control at 140 g/ha [%]
COC(=O)c1nc(-c2ccc3c(c2OC)OC(F)(F)O3)c(F)cc1Cl [F235, Methyl 3-chloro-6-(2,2-difluoro-4-methoxybenzo[d][1,3]dioxol-5-yl)-5-fluoropicolinate] | 95 to 100
COC(=O)c1nc(-c2cc(Br)c(C(F)(F)F)cc2Cl)c(Cl)cc1Cl [F257, Methyl 6-(5-bromo-2-chloro-4-(trifluoromethyl)phenyl)-3,5-dichloropicolinate] | 0 to 29
COC(=O)c1nc(-c2c(C=O)cc(OC)c(O)c2Cl)ccc1Cl [F228, Methyl 3-chloro-6-(2-chloro-6-formyl-3-hydroxy-4-methoxyphenyl) picolinate] | 0 to 29

Same assay, conditions: post-emergence, 336 h, IPOHE: ivy-leaf morning glory (Ipomoea hederacea), 140 g ai/ha, 14 days after application, read-out: Visual Growth Reduction (%) 14 Days After Application, IPOHE

Structure (SMILES) | pest or weed control at 140 g/ha [%]
COC(=O)c1nc(-c2ccc3c(c2OC)OC(F)(F)O3)c(F)cc1Cl [F235, Methyl 3-chloro-6-(2,2-difluoro-4-methoxybenzo[d][1,3]dioxol-5-yl)-5-fluoropicolinate] | 95 to 100
COC(=O)c1nc(-c2cc(Br)c(C(F)(F)F)cc2Cl)c(Cl)cc1Cl [F257, Methyl 6-(5-bromo-2-chloro-4-(trifluoromethyl)phenyl)-3,5-dichloropicolinate] | 85 to 94
COC(=O)c1nc(-c2c(C=O)cc(OC)c(O)c2Cl)ccc1Cl [F228, Methyl 3-chloro-6-(2-chloro-6-formyl-3-hydroxy-4-methoxyphenyl) picolinate] | 0 to 29

Same assay, conditions: post-emergence, 336 h, KCHSC: kochia (Bassia scoparia), 140 g ai/ha, 14 days after application, read-out: Visual Growth Reduction (%) 14 Days After Application, KCHSC

Structure (SMILES) | pest or weed control at 140 g/ha [%]
COC(=O)c1nc(-c2ccc3c(c2OC)OC(F)(F)O3)c(F)cc1Cl [F235, Methyl 3-chloro-6-(2,2-difluoro-4-methoxybenzo[d][1,3]dioxol-5-yl)-5-fluoropicolinate] | 95 to 100
COC(=O)c1nc(-c2cc(Br)c(C(F)(F)F)cc2Cl)c(Cl)cc1Cl [F257, Methyl 6-(5-bromo-2-chloro-4-(trifluoromethyl)phenyl)-3,5-dichloropicolinate] | 0 to 29
COC(=O)c1nc(-c2c(C=O)cc(OC)c(O)c2Cl)ccc1Cl [F228, Methyl 3-chloro-6-(2-chloro-6-formyl-3-hydroxy-4-methoxyphenyl) picolinate] | 0 to 29

Same assay, conditions: post-emergence, 336 h, ORYSA: rice (Oryza sativa), 140 g ai/ha, 14 days after application, read-out: Visual Growth Reduction (%) 14 Days After Application, ORYSA

Structure (SMILES) | pest or weed control at 140 g/ha [%]
COC(=O)c1nc(-c2ccc3c(c2OC)OC(F)(F)O3)c(F)cc1Cl [F235, Methyl 3-chloro-6-(2,2-difluoro-4-methoxybenzo[d][1,3]dioxol-5-yl)-5-fluoropicolinate] | 45 to 59
COC(=O)c1nc(-c2cc(Br)c(C(F)(F)F)cc2Cl)c(Cl)cc1Cl [F257, Methyl 6-(5-bromo-2-chloro-4-(trifluoromethyl)phenyl)-3,5-dichloropicolinate] | 0 to 29
COC(=O)c1nc(-c2c(C=O)cc(OC)c(O)c2Cl)ccc1Cl [F228, Methyl 3-chloro-6-(2-chloro-6-formyl-3-hydroxy-4-methoxyphenyl) picolinate] | 0 to 29

Same assay, conditions: post-emergence, 336 h, SETFA: giant foxtail (Setaria faberi), 140 g ai/ha, 14 days after application, read-out: Visual Growth Reduction (%) 14 Days After Application, SETFA

Structure (SMILES) | pest or weed control at 140 g/ha [%]
COC(=O)c1nc(-c2ccc3c(c2OC)OC(F)(F)O3)c(F)cc1Cl [F235, Methyl 3-chloro-6-(2,2-difluoro-4-methoxybenzo[d][1,3]dioxol-5-yl)-5-fluoropicolinate] | 95 to 100
COC(=O)c1nc(-c2cc(Br)c(C(F)(F)F)cc2Cl)c(Cl)cc1Cl [F257, Methyl 6-(5-bromo-2-chloro-4-(trifluoromethyl)phenyl)-3,5-dichloropicolinate] | 0 to 29
COC(=O)c1nc(-c2c(C=O)cc(OC)c(O)c2Cl)ccc1Cl [F228, Methyl 3-chloro-6-(2-chloro-6-formyl-3-hydroxy-4-methoxyphenyl) picolinate] | 0 to 29

Same assay, conditions: post-emergence, 336 h, SORVU: grain sorghum (Sorghum vulgare), 140 g ai/ha, 14 days after application, read-out: Visual Growth Reduction (%) 14 Days After Application, SORVU

Structure (SMILES) | pest or weed control at 140 g/ha [%]
COC(=O)c1nc(-c2ccc3c(c2OC)OC(F)(F)O3)c(F)cc1Cl [F235, Methyl 3-chloro-6-(2,2-difluoro-4-methoxybenzo[d][1,3]dioxol-5-yl)-5-fluoropicolinate] | 95 to 100
COC(=O)c1nc(-c2cc(Br)c(C(F)(F)F)cc2Cl)c(Cl)cc1Cl [F257, Methyl 6-(5-bromo-2-chloro-4-(trifluoromethyl)phenyl)-3,5-dichloropicolinate] | 0 to 29
COC(=O)c1nc(-c2c(C=O)cc(OC)c(O)c2Cl)ccc1Cl [F228, Methyl 3-chloro-6-(2-chloro-6-formyl-3-hydroxy-4-methoxyphenyl) picolinate] | 0 to 29

Same assay, conditions: post-emergence, 336 h, STEME: common chickweed (Stellaria media), 140 g ai/ha, 14 days after application, read-out: Visual Growth Reduction (%) 14 Days After Application, STEME

Structure (SMILES) | pest or weed control at 140 g/ha [%]
COC(=O)c1nc(-c2ccc3c(c2OC)OC(F)(F)O3)c(F)cc1Cl [F235, Methyl 3-chloro-6-(2,2-difluoro-4-methoxybenzo[d][1,3]dioxol-5-yl)-5-fluoropicolinate] | 85 to 94
COC(=O)c1nc(-c2cc(Br)c(C(F)(F)F)cc2Cl)c(Cl)cc1Cl [F257, Methyl 6-(5-bromo-2-chloro-4-(trifluoromethyl)phenyl)-3,5-dichloropicolinate] | 0 to 29
COC(=O)c1nc(-c2c(C=O)cc(OC)c(O)c2Cl)ccc1Cl [F228, Methyl 3-chloro-6-(2-chloro-6-formyl-3-hydroxy-4-methoxyphenyl) picolinate] | 0 to 29

Same assay, conditions: post-emergence, 336 h, TRZAS: wheat, spring (Triticum aestivum), 140 g ai/ha, 14 days after application, read-out: Visual Growth Reduction (%) 14 Days After Application, TRZAS

Structure (SMILES) | pest or weed control at 140 g/ha [%]
COC(=O)c1nc(-c2ccc3c(c2OC)OC(F)(F)O3)c(F)cc1Cl [F235, Methyl 3-chloro-6-(2,2-difluoro-4-methoxybenzo[d][1,3]dioxol-5-yl)-5-fluoropicolinate] | 95 to 100
COC(=O)c1nc(-c2cc(Br)c(C(F)(F)F)cc2Cl)c(Cl)cc1Cl [F257, Methyl 6-(5-bromo-2-chloro-4-(trifluoromethyl)phenyl)-3,5-dichloropicolinate] | 0 to 29
COC(=O)c1nc(-c2c(C=O)cc(OC)c(O)c2Cl)ccc1Cl [F228, Methyl 3-chloro-6-(2-chloro-6-formyl-3-hydroxy-4-methoxyphenyl) picolinate] | 0 to 29

Same assay, conditions: post-emergence, 336 h, blackgrass (Alopecurus myosuroides), 14 Days After Application, 140 g ai/ha, read-out: Visual Growth Reduction (%) ALOMY

Structure (SMILES) | pest or weed control at 140 g/ha [%]
COC(=O)c1nc(-c2ccc3c(c2OC)OC(F)(F)O3)c(F)cc1Cl [F235, Methyl 3-chloro-6-(2,2-difluoro-4-methoxybenzo[d][1,3]dioxol-5-yl)-5-fluoropicolinate] | 60 to 74
COC(=O)c1nc(-c2cc(Br)c(C(F)(F)F)cc2Cl)c(Cl)cc1Cl [F257, Methyl 6-(5-bromo-2-chloro-4-(trifluoromethyl)phenyl)-3,5-dichloropicolinate] | 0 to 29
COC(=O)c1nc(-c2c(C=O)cc(OC)c(O)c2Cl)ccc1Cl [F228, Methyl 3-chloro-6-(2-chloro-6-formyl-3-hydroxy-4-methoxyphenyl) picolinate] | 0 to 29

Same assay, conditions: post-emergence, 336 h, canada thistle (Cirsium arvense), 14 Days After Application, 140 g ai/ha, read-out: Visual Growth Reduction (%) CIRAR

Structure (SMILES) | pest or weed control at 140 g/ha [%]
COC(=O)c1nc(-c2ccc3c(c2OC)OC(F)(F)O3)c(F)cc1Cl [F235, Methyl 3-chloro-6-(2,2-difluoro-4-methoxybenzo[d][1,3]dioxol-5-yl)-5-fluoropicolinate] | 95 to 100
COC(=O)c1nc(-c2cc(Br)c(C(F)(F)F)cc2Cl)c(Cl)cc1Cl [F257, Methyl 6-(5-bromo-2-chloro-4-(trifluoromethyl)phenyl)-3,5-dichloropicolinate] | 0 to 29
COC(=O)c1nc(-c2c(C=O)cc(OC)c(O)c2Cl)ccc1Cl [F228, Methyl 3-chloro-6-(2-chloro-6-formyl-3-hydroxy-4-methoxyphenyl) picolinate] | 0 to 29

Same assay, conditions: post-emergence, 336 h, crabgrass (Digitaria sanguinalis), 14 Days After Application, 140 g ai/ha, read-out: Visual Growth Reduction (%) DIGSA

Structure (SMILES) | pest or weed control at 140 g/ha [%]
COC(=O)c1nc(-c2ccc3c(c2OC)OC(F)(F)O3)c(F)cc1Cl [F235, Methyl 3-chloro-6-(2,2-difluoro-4-methoxybenzo[d][1,3]dioxol-5-yl)-5-fluoropicolinate] | 95 to 100
COC(=O)c1nc(-c2cc(Br)c(C(F)(F)F)cc2Cl)c(Cl)cc1Cl [F257, Methyl 6-(5-bromo-2-chloro-4-(trifluoromethyl)phenyl)-3,5-dichloropicolinate] | 0 to 29
COC(=O)c1nc(-c2c(C=O)cc(OC)c(O)c2Cl)ccc1Cl [F228, Methyl 3-chloro-6-(2-chloro-6-formyl-3-hydroxy-4-methoxyphenyl) picolinate] | 0 to 29

Same assay, conditions: post-emergence, 336 h, lambsquarters (Chenopodium album), 14 Days After Application, 140 g ai/ha, read-out: Visual Growth Reduction (%) CHEAL

Structure (SMILES) | pest or weed control at 140 g/ha [%]
COC(=O)c1nc(-c2ccc3c(c2OC)OC(F)(F)O3)c(F)cc1Cl [F235, Methyl 3-chloro-6-(2,2-difluoro-4-methoxybenzo[d][1,3]dioxol-5-yl)-5-fluoropicolinate] | 95 to 100
COC(=O)c1nc(-c2cc(Br)c(C(F)(F)F)cc2Cl)c(Cl)cc1Cl [F257, Methyl 6-(5-bromo-2-chloro-4-(trifluoromethyl)phenyl)-3,5-dichloropicolinate] | 75 to 84
COC(=O)c1nc(-c2c(C=O)cc(OC)c(O)c2Cl)ccc1Cl [F228, Methyl 3-chloro-6-(2-chloro-6-formyl-3-hydroxy-4-methoxyphenyl) picolinate] | 0 to 29

Same assay, conditions: post-emergence, 336 h, redroot pigweed (Amaranthus retroflexus), 14 Days After Application, 140 g ai/ha, read-out: Visual Growth Reduction (%) AMARE

Structure (SMILES) | pest or weed control at 140 g/ha [%]
COC(=O)c1nc(-c2ccc3c(c2OC)OC(F)(F)O3)c(F)cc1Cl [F235, Methyl 3-chloro-6-(2,2-difluoro-4-methoxybenzo[d][1,3]dioxol-5-yl)-5-fluoropicolinate] | 95 to 100
COC(=O)c1nc(-c2cc(Br)c(C(F)(F)F)cc2Cl)c(Cl)cc1Cl [F257, Methyl 6-(5-bromo-2-chloro-4-(trifluoromethyl)phenyl)-3,5-dichloropicolinate] | 0 to 29
COC(=O)c1nc(-c2c(C=O)cc(OC)c(O)c2Cl)ccc1Cl [F228, Methyl 3-chloro-6-(2-chloro-6-formyl-3-hydroxy-4-methoxyphenyl) picolinate] | 0 to 29

Same assay, conditions: post-emergence, 336 h, wild oat (Avena fatua), 14 Days After Application, 140 g ai/ha, read-out: Visual Growth Reduction (%) AVEFA

Structure (SMILES) | pest or weed control at 140 g/ha [%]
COC(=O)c1nc(-c2ccc3c(c2OC)OC(F)(F)O3)c(F)cc1Cl [F235, Methyl 3-chloro-6-(2,2-difluoro-4-methoxybenzo[d][1,3]dioxol-5-yl)-5-fluoropicolinate] | 95 to 100
COC(=O)c1nc(-c2cc(Br)c(C(F)(F)F)cc2Cl)c(Cl)cc1Cl [F257, Methyl 6-(5-bromo-2-chloro-4-(trifluoromethyl)phenyl)-3,5-dichloropicolinate] | 0 to 29
COC(=O)c1nc(-c2c(C=O)cc(OC)c(O)c2Cl)ccc1Cl [F228, Methyl 3-chloro-6-(2-chloro-6-formyl-3-hydroxy-4-methoxyphenyl) picolinate] | 0 to 29

Same assay, conditions: post-emergence, 336 h, yellow nutsedge (Cyperus esculentus), 14 Days After Application, 140 g ai/ha, read-out: Visual Growth Reduction (%) CYPES

Structure (SMILES) | pest or weed control at 140 g/ha [%]
COC(=O)c1nc(-c2ccc3c(c2OC)OC(F)(F)O3)c(F)cc1Cl [F235, Methyl 3-chloro-6-(2,2-difluoro-4-methoxybenzo[d][1,3]dioxol-5-yl)-5-fluoropicolinate] | 0 to 29
COC(=O)c1nc(-c2cc(Br)c(C(F)(F)F)cc2Cl)c(Cl)cc1Cl [F257, Methyl 6-(5-bromo-2-chloro-4-(trifluoromethyl)phenyl)-3,5-dichloropicolinate] | 0 to 29
COC(=O)c1nc(-c2c(C=O)cc(OC)c(O)c2Cl)ccc1Cl [F228, Methyl 3-chloro-6-(2-chloro-6-formyl-3-hydroxy-4-methoxyphenyl) picolinate] | 0 to 29
